# Earlier results as cited in patent publication US6017399A, “Method for controlling and removing solid deposits from a surface of a component of a steam generating system” (priority 1998, dated 2000).
# Conditions: 25° C.
row,Molecule,pKa
1,CNC [Dimethylamine],about 10.61

# Same assay, conditions: 25° C.; Table 4
row,Molecule,pKa
1,"NCCCCCN [1,5 Diaminopentane]",10.915
2,"C1CCC2=NCCCN2CC1 [1,5-Diazabicyclo (5,4,0) Unde-5-ane]",13.40
3,"NCCCCCCN [1,6 Diaminohexane]",10.93
4,"NCCCCCCCCN [1,8 Diaminooctane]",10.937
5,CCCCNCCCC [Di-N-Butylamine],11.31
6,CC(C)CNCC(C)C [Diisobutylamine],10.82
7,CNC [Dimethylamine],10.61
8,CCCCN [Mono-N-Butylamine],10.61
9,CN [Monomethylamine],10.62
10,CCNC1CCCCC1 [N-Ethylcyclohexylamine],12.00
11,CCCN(CCC)CCC [Tri-N-Propylamine],10.65
12,CN(C)C [Trimethylamine],10.71
13,Dimethylamino-propylamine,11.70

# Same assay, conditions: about 250° C.
row,Molecule,pKa
1,CNC [Dimethylamine],about 6.50
